Data reported in ChEMBL document CHEMBL6127087 (Eur J Med Chem, 2024).
Active and inactive are the calls of the source. The calls are words filed in the database; no cut-off is given here.

How the values were obtained:
[1] = molecular target: P2Y purinoceptor 1 (Homo sapiens) (UniProt P47900); assay: Antagonist activity at human P2Y1R stably expressed in HEK293 cells assessed as inhibition of ADP-induced IP3 accumulation preincubated with compound for 30 mins followed by ADP addition by ELISA; assay type: functional, cell-based
[2] = molecular target: Cytochrome P450 2C19 (Homo sapiens, UniProt P33261); assay: Inhibition of CYP2C19 in human liver microsomes using s-mephenytoin as substrate preincubated for 10 mins followed by NADPH addition and measured after 10 mins by LC-MS/MS analysis; assay type: ADME, Microsome
[3] = molecular target: Cytochrome P450 2C9 (Homo sapiens, UniProt P11712); assay: Inhibition of CYP2C9 in human liver microsomes using diclofenac as substrate preincubated for 10 mins followed by NADPH addition and measured after 10 mins by LC-MS/MS analysis; assay type: ADME, Microsome
[4] = molecular target: T1, Cytochrome P450 1A2 (Homo sapiens, UniProt P05177); assay: Inhibition of CYP1A2 in human liver microsomes using phenacetin as substrate preincubated for 10 mins followed by NADPH addition and measured after 10 mins by LC-MS/MS analysis; assay type: ADME, Microsome
T1 sequence (P05177 whole entry): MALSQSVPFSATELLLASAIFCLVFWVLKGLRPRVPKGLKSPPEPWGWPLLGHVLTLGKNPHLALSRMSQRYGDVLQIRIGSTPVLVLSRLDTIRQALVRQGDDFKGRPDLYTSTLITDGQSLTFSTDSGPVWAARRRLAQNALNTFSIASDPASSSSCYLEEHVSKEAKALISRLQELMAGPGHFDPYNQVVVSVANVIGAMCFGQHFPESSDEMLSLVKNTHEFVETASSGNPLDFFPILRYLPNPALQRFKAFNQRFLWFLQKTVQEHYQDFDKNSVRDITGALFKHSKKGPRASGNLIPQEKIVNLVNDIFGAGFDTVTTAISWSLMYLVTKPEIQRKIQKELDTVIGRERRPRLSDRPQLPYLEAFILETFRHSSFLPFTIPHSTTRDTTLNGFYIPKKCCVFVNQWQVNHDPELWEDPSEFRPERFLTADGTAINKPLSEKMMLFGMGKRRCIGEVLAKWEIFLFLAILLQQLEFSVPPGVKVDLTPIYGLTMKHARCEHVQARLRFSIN

[5] = molecular target: Cytochrome P450 2D6 (Homo sapiens, UniProt P10635); assay: Inhibition of CYP2D6 in human liver microsomes using […] as substrate preincubated for 10 mins followed by NADPH addition and measured after 10 mins by LC-MS/MS analysis; assay type: ADME, Microsome
[6] = Metabolic stability in human liver microsomes assessed as intrinsic clearance preincubated for 10 mins followed by NADPH addition and measured upto 60 mins by LC-MS/MS analysis; assay type: ADME, Microsome; details: time < 70 min, read-out: CLH
[7] = AUC (0 to 24 hrs) in male Sprague-Dawley rat at 10 mg/kg, iv measured after 24 hrs by LC-MS/MS analysis; assay type: ADME, organism-based; details: in vivo
[8] = Tmax in male Sprague-Dawley rat at 20 mg/kg, po measured after 24 hrs by LC-MS/MS analysis; assay type: ADME, organism-based; details: male, Sprague-Dawley, in vivo, read-out: Tmax (converted)
[9] = system: Mus musculus; assay: (§1) Anti-inflammatory activity in LPS-induced male C57BL/6 mouse model of acute […] injury assessed as reduction in IL-1beta level in BALF at 2 to 6 mg/kg, IG preadministered with compound for 7 days followed by LPS administration and measured after 24 hrs by ELISA; assay type: functional, organism-based; details: dose 2-6 mg/kg, time 8.0 day
[10] = system: Mus musculus; assay: Anti-inflammatory activity in LPS-induced male C57BL/6 mouse model of acute […] injury assessed as reduction in IL-6 level in BALF at 2 to 6 mg/kg, IG preadministered with compound for 7 days followed by LPS administration and measured after 24 hrs by ELISA; assay type: functional, organism-based; details: dose 2-6 mg/kg, time 8.0 day
[11] = system: Mus musculus; assay: Anti-inflammatory activity in LPS-induced male C57BL/6 mouse model of acute […] injury assessed as reduction in TNF-alpha level in BALF at 2 to 6 mg/kg, IG preadministered with compound for 7 days followed by LPS administration and measured after 24 hrs by ELISA; assay type: functional, organism-based; details: dose 2-6 mg/kg, time 8.0 day
[12] = system: Mus musculus; assay: as §1, with “infiltration of immune cells by measuring decrease” for “IL-1beta level”, “neutrophil count” for “BALF”, “hrs” for “hrs by ELISA”; assay type: functional, organism-based; details: dose 2-6 mg/kg, time 8.0 day
[13] = system: Mus musculus; assay: as §1, with “infiltration of immune cells by measuring decrease” for “IL-1beta level”, “monocytes count” for “BALF”, “hrs” for “hrs by ELISA”; assay type: functional, organism-based; details: dose 2-6 mg/kg, time 8.0 day
[14] = system: Mus musculus; assay: Anti-inflammatory activity in LPS-induced male C57BL/6 mouse model of acute […] injury assessed as reduction in neutrophil elastase level in BALF at 2 to 6 mg/kg, IG preadministered with compound for 7 days followed by LPS administration and measured after 24 hrs by ELISA; assay type: functional, organism-based; details: dose 2-6 mg/kg, time 8.0 day
[15] = system: Mus musculus; assay: as §1, with “alveolar septa thickening” for “IL-1beta level”, “lung” for “BALF”, “H and E staining based histopathological analysis” for “ELISA”; assay type: functional, organism-based; details: dose 2-6 mg/kg, time 8.0 day
[16] = system: Mus musculus; assay: as §1, with “tissue destruction” for “IL-1beta level”, “lung” for “BALF”, “H and E staining based histopathological analysis” for “ELISA”; assay type: functional, organism-based; details: dose 2-6 mg/kg, time 8.0 day
[17] = system: Mus musculus; assay: as §1, with “inflammatory infiltration” for “IL-1beta level”, “lung” for “BALF”, “H and E staining based histopathological analysis” for “ELISA”; assay type: functional, organism-based; details: dose 2-6 mg/kg, time 8.0 day
[18] = system: Mus musculus; assay: as §1, with “intact appearance of alveolar structure” for “reduction”, “lung” for “IL-1beta level in BALF”, “H and E staining based histopathological analysis” for “ELISA”; assay type: functional, organism-based; details: dose 2-6 mg/kg, time 8.0 day
[19] = system: Mus musculus; assay: as §1, with “hyperemia of pulmonary alveolar septa” for “IL-1beta level”, “lung” for “BALF”, “H and E staining based histopathological analysis” for “ELISA”; assay type: functional, organism-based; details: dose 2-6 mg/kg, time 8.0 day
[20] = system: Mus musculus; assay: Anti-inflammatory activity in LPS-induced male C57BL/6 mouse model of acute […] injury assessed as reduction in infiltration of neutrophils into lung at 2 to 6 mg/kg, IG preadministered with compound for 7 days followed by LPS administration and measured after 24 hrs by immunofluorescence analysis; assay type: functional, organism-based; details: dose 2-6 mg/kg, time 8.0 day
[21] = system: Mus musculus; assay: Anti-inflammatory activity in LPS-induced male C57BL/6 mouse model of acute […] injury assessed as inhibition of CCL2 mRNA expression at 2 to 6 mg/kg, IG preadministered with compound for 7 days followed by LPS administration and measured after 24 hrs by RT-PCR analysis; assay type: functional, organism-based; details: dose 2-6 mg/kg, time 8.0 day
[22] = system: Mus musculus; assay: Anti-inflammatory activity in LPS-induced male C57BL/6 mouse model of acute […] injury assessed as inhibition of CXCL1 release at 2 to 6 mg/kg, IG preadministered with compound for 7 days followed by LPS administration and measured after 24 hrs by ELISA; assay type: functional, organism-based; details: dose 2-6 mg/kg, time 8.0 day
[23] = system: Mus musculus; assay: In vivo inhibition of NLRP3 activation in LPS-induced male C57BL/6 mouse model of acute […] injury assessed as reduction in NLRP3 level in lung at 2 to 6 mg/kg, IG preadministered with compound for 7 days followed by LPS administration and measured after 24 hrs by Western blot analysis; assay type: functional, organism-based; details: dose 2-6 mg/kg, time 8.0 day

Sequence of Cytochrome P450 2C19 (P33261 whole entry): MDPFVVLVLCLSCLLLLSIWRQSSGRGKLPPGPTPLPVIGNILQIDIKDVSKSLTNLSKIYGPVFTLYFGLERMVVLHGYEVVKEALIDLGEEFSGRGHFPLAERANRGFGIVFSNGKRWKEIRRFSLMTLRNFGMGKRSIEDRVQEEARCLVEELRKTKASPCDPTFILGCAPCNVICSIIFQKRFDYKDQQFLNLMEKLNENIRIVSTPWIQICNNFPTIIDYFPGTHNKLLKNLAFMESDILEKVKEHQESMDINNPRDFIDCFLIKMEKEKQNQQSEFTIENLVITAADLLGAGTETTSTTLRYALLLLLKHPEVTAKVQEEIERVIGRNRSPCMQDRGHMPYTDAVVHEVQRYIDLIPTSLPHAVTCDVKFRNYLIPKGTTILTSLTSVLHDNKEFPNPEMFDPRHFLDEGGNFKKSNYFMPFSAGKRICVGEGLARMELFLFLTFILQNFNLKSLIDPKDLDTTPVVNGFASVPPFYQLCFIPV
Sequence of Cytochrome P450 2D6 (P10635 whole entry): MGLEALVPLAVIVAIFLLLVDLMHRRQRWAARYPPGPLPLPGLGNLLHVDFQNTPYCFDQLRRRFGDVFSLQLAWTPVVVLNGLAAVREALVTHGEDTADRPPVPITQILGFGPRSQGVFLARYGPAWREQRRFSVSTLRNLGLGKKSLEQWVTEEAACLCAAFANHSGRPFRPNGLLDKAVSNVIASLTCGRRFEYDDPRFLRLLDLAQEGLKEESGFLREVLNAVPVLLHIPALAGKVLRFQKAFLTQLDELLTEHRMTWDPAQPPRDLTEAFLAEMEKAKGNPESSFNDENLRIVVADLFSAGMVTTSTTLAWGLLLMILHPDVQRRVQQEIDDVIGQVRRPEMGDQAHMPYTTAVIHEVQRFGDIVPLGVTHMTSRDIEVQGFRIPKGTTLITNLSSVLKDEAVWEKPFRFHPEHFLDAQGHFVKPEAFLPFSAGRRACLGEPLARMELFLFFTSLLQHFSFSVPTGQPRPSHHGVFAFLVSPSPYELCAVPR
Sequence of P2Y purinoceptor 1 (Homo sapiens) (P47900 whole entry): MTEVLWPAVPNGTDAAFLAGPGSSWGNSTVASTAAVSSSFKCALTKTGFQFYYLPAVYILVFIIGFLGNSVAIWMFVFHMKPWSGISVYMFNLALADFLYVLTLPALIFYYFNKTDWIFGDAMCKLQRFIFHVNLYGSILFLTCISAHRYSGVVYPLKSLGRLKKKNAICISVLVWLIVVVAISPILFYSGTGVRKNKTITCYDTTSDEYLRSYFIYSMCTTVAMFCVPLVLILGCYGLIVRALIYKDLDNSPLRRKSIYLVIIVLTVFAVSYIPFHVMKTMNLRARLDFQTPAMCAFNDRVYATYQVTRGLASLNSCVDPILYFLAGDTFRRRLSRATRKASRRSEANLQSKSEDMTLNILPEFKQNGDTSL
Sequence of Cytochrome P450 2C9 (P11712 whole entry): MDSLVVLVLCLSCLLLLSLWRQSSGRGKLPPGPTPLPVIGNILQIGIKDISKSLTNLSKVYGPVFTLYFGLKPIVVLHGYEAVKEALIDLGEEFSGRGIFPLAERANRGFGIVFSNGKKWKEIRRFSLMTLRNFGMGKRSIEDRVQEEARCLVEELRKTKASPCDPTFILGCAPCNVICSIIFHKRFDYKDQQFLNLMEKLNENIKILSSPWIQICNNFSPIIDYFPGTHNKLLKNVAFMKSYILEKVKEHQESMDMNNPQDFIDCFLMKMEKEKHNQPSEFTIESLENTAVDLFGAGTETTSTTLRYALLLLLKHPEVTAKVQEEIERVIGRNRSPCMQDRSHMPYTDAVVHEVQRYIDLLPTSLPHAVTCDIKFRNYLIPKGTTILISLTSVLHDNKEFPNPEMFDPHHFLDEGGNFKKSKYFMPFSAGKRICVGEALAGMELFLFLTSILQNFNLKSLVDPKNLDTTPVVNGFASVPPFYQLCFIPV

**Q.** Which results are given for O=C(O)CCC(=O)N1N=C(c2ccc[nH]2)CC1c1cnc2ccccc2c1 (stereo not drawn)?
**A.** Activity [1]: inactive; IC50 [2]: > 50 µM; IC50 [3]: 23.6 µM; IC50 [4]: > 50 µM; IC50 [5]: > 50 µM; microsomal CLint [6]: 18.6 µL/min/mg; AUC [7]: 1956 ng·h/mL; Tmax [8]: 46 min; Activity [9]: Active; Activity [10]: Active; Activity [11]: Active; Activity [12]: Active; Activity [13]: Active; Activity [14]: Active; Activity [15]: Active; Activity [16]: Active; Activity [17]: Active; Activity [18]: Active; Activity [19]: Active; Activity [20]: Active; Activity [21]: Active; Activity [22]: Active; inhibition [23]: Active
